Laboratory results reported in ChEMBL document CHEMBL3526000 (Drug Metab Dispos, 2012).

What was measured:
[1] = biological target: T1, UDP-glucuronosyltransferase 1A9 (Homo sapiens, UniProt O60656); assay: Drug metabolism assessed as recombinant human UGT1A9 assessed as O-glucuronidation measured as inhibition constant at 10 to 400 uM incubated for 60 mins by LC-MS/MS analysis
T1 sequence (O60656 whole entry): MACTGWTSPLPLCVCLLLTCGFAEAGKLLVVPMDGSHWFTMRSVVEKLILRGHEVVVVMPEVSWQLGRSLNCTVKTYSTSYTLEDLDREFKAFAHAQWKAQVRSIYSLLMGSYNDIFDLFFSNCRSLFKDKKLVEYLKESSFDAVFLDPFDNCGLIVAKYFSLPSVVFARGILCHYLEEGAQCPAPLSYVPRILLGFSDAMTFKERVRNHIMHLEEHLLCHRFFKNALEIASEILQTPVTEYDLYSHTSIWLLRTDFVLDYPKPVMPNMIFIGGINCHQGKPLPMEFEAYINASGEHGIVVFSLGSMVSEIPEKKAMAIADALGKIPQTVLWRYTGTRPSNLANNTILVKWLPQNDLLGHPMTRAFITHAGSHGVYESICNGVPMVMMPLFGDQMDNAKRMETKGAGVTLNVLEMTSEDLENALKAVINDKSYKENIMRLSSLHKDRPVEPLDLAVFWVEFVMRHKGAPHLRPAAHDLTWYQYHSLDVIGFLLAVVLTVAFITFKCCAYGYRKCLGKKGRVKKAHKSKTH

[2] = biological target: T2, UDP-glucuronosyltransferase 1A1 (Homo sapiens, UniProt P22309); assay: Drug metabolism assessed as recombinant human UGT1A1 assessed as N-glucuronidation at 100 uM incubated for 60 mins by LC-MS/MS analysis; assay type: ADME; settings: recombinant enzyme, 1 h
T2 sequence (P22309 whole entry): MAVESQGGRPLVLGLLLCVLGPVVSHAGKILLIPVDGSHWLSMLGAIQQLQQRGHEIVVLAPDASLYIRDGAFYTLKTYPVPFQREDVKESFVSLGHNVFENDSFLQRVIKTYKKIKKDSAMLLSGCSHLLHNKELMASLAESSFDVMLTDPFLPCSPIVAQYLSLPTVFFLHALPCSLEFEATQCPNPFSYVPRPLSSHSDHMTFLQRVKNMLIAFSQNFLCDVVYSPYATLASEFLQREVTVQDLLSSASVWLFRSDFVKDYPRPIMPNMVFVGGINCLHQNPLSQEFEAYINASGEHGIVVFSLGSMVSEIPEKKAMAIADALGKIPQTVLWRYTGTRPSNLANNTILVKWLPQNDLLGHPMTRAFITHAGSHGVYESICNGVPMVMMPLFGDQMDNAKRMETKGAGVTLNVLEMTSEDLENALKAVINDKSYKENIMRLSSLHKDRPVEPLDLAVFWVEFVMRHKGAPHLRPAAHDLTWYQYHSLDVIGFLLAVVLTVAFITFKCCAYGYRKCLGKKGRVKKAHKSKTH

[3] = biological target: T3, UDP-glucuronosyltransferase 2B17 (Homo sapiens, UniProt O75795); assay: Drug metabolism assessed as recombinant human UGT2B17 assessed as O-glucuronidation at 100 uM incubated for 60 mins by LC-MS/MS analysis; assay type: ADME; settings: recombinant enzyme, 1 h
T3 sequence (O75795 whole entry): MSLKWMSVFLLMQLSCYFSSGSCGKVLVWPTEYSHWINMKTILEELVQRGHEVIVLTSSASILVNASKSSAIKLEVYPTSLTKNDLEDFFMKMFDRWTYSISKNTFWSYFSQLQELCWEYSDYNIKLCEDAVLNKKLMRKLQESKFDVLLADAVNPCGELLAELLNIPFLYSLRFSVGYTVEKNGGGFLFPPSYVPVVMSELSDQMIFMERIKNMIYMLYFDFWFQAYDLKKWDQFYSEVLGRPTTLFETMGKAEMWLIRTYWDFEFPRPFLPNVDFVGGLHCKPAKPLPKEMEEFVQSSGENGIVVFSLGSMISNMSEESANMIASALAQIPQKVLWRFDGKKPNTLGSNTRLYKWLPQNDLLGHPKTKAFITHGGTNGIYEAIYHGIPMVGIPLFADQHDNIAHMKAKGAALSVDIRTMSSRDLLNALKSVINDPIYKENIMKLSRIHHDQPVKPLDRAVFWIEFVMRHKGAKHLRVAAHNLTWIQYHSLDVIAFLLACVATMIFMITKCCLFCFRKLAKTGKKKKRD

[4] = biological target: T2, UDP-glucuronosyltransferase 1A1; assay: Drug metabolism assessed as recombinant human UGT1A1 assessed as O-glucuronidation at 100 uM incubated for 60 mins by LC-MS/MS analysis; assay type: ADME; settings: recombinant enzyme, 1 h
[5] = biological target: T4, UDP-glucuronosyltransferase 2B15 (Homo sapiens, UniProt P54855); assay: Drug metabolism assessed as recombinant human UGT2B15 assessed as O-glucuronidation at 100 uM incubated for 60 mins by LC-MS/MS analysis; assay type: ADME; settings: recombinant enzyme, 1 h
T4 sequence (P54855 whole entry): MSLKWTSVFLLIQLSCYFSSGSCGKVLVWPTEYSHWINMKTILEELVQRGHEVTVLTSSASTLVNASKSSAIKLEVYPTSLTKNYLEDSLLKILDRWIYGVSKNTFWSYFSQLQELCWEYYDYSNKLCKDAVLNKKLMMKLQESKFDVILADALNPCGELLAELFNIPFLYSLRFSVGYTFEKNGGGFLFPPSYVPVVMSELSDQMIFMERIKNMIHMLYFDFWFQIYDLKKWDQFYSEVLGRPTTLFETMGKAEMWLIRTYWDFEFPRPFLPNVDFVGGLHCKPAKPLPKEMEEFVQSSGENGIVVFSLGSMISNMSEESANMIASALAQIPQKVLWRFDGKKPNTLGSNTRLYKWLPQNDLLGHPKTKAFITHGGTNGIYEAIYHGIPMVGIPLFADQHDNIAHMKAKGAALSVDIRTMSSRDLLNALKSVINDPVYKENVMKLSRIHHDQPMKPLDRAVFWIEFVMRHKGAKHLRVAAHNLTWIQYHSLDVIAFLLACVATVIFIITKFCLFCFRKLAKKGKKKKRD

[6] = biological target: T5, UDP-glucuronosyltransferase 2B4 (Homo sapiens, UniProt P06133); assay: Drug metabolism assessed as recombinant human UGT2B4 assessed as O-glucuronidation at 100 uM incubated for 60 mins by LC-MS/MS analysis; assay type: ADME; settings: recombinant enzyme, 1 h
T5 sequence (P06133 whole entry): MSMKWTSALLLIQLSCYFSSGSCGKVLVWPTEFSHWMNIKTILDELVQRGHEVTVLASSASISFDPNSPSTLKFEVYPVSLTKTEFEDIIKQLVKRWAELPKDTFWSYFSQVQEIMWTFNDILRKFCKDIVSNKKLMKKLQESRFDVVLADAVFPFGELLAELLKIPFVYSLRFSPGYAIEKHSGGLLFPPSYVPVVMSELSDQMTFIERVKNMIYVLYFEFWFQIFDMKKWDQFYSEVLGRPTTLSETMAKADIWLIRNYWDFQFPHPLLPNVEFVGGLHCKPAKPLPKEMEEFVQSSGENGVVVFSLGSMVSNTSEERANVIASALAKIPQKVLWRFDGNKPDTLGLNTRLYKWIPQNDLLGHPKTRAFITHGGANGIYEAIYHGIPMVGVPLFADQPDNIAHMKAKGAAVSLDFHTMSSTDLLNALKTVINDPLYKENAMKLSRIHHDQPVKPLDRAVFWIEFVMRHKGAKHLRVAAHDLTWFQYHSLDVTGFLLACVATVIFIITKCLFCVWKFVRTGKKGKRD

[7] = Drug excretion in human urine; assay type: ADME; settings: read-out: Drug excretion

O=C(CCCN1CCC(O)(c2ccc(Cl)cc2)CC1)c1ccc(F)cc1 [HALOPERIDOL]
Ki [1]: 344 µM
Drug metabolism [2]: metabolite_not_detected
Drug metabolism [3]: metabolite_not_detected
Drug metabolism [4]: metabolite_not_detected
Drug metabolism [5]: metabolite_not_detected
Drug metabolism [6]: metabolite_not_detected
dose excreted [7]: 1%
